Laboratory results reported in US9187472B2 (AbbVie Inc., priority 2012, dated 2015).

system: PC3 cells; test: NAMPT Cell Proliferation Assay; format: cell-based; details: Homo sapiens, PC-3, 120 h, 5 days incubation, cell viability by Cell Titer Glo
Outline: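 Proliferation of PC3 cells treated 5 days with a 10-fold compound series (top 10 μM) was quantified by Cell Titer Glo luminescence; IC50s were fitted from percent inhibition.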

IC50	Compound
5.7 nM	O=C(NCc1ccn2ccnc2c1)Nc1ccc(C2CCN(C(=O)c3ncc(F)cc3F)CC2)cc1 [Example 1066, 1-(4-{1-[(3,5-difluoropyridin-2-yl)carbonyl]piperidin-4-yl}phenyl)-3-(imidazo[1,2-a]pyridin-7-ylmethyl)urea]
6.67 nM	Cn1ncc2c(C(=O)N3CCC(c4ccc(C(=O)NCc5ccn6ccnc6c5)cc4)CC3)cccc21 [Example 1119, N-(imidazo[1,2-a]pyridin-7-ylmethyl)-4-{1-[(1-methyl-1H-indazol-4-yl)carbonyl]piperidin-4-yl}benzamide]
3.59 nM	Cc1cccn2cc(C(=O)N3CCC(c4ccc(NC(=O)NCc5ccn6ccnc6c5)cc4)CC3)nc12 [Example 1042, 1-(imidazo[1,2-a]pyridin-7-ylmethyl)-3-(4-{1-[(8-methylimidazo[1,2-a]pyridin-2-yl)carbonyl]piperidin-4-yl}phenyl)urea]
7.36 nM	Cc1nc2ccc(C(=O)N3CCC(c4ccc(NC(=O)NCc5ccn6ccnc6c5)cc4)CC3)cc2o1 [Example 1028, 1-(imidazo[1,2-a]pyridin-7-ylmethyl)-3-(4-{1-[(2-methyl-1,3-benzoxazol-6-yl)carbonyl]piperidin-4-yl}phenyl)urea]
3.08 nM	Cn1ncc2c(C(=O)N3CCC(c4ccc(NC(=O)NCc5ccn6ccnc6c5)cc4)CC3)cccc21 [Example 1152, 1-(imidazo[1,2-a]pyridin-7-ylmethyl)-3-(4-{1-[(1-methyl-1H-indazol-4-yl)carbonyl]piperidin-4-yl}phenyl)urea]
6.69 nM	Cn1c(C(=O)N2CCC(c3ccc(NC(=O)NCc4ccn5ccnc5c4)cc3)CC2)cc2occc21 [Example 1045, 1-(imidazo[1,2-a]pyridin-7-ylmethyl)-3-(4-{1-[(4-methyl-4H-furo[3,2-b]pyrrol-5-yl)carbonyl]piperidin-4-yl}phenyl)urea]
3.36 nM	COc1ccc(C(=O)N2CCC(c3ccc(NC(=O)NCc4ccn5ccnc5c4)cc3)CC2)c(OC)c1 [Example 944, 1-{4-[1-(2,4-dimethoxybenzoyl)piperidin-4-yl]phenyl}-3-(imidazo[1,2-a]pyridin-7-ylmethyl)urea]
68.2 nM	O=C(NCc1ccn2ccnc2c1)c1ccc(C2CCN(C(=O)c3cnc4ccccc4n3)CC2)cc1 [Example 989, N-(imidazo[1,2-a]pyridin-7-ylmethyl)-4-[1-(quinoxalin-2-ylcarbonyl)piperidin-4-yl]benzamide]
8.27 nM	N#Cc1cc(F)cc(C(=O)N2CCC(c3ccc(NC(=O)NCc4ccn5ccnc5c4)cc3)CC2)c1 [Example 1048, 1-{4-[1-(3-cyano-5-fluorobenzoyl)piperidin-4-yl]phenyl}-3-(imidazo[1,2-a]pyridin-7-ylmethyl)urea]
5.7 nM	N#Cc1ccccc1C(=O)N1CCC(c2ccc(NC(=O)NCc3ccn4ccnc4c3)c(F)c2)CC1 [Example 1076, 1-{4-[1-(2-cyanobenzoyl)piperidin-4-yl]-2-fluorophenyl}-3-(imidazo[1,2-a]pyridin-7-ylmethyl)urea]
2.39 nM	O=C(NCc1ccn2ccnc2c1)Nc1ccc(C2CCN(C(=O)c3cccc4ccncc34)CC2)cc1 [Example 1049, 1-(imidazo[1,2-a]pyridin-7-ylmethyl)-3-{4-[1-(isoquinolin-8-ylcarbonyl)piperidin-4-yl]phenyl}urea]
1.11 nM	O=C(NCc1ccn2ccnc2c1)Nc1ccc(C2CCN(C(=O)c3ccn(C4CCCC4)n3)CC2)cc1 [Example 1021, 1-(4-{1-[(1-cyclopentyl-1H-pyrazol-3-yl)carbonyl]piperidin-4-yl}phenyl)-3-(imidazo[1,2-a]pyridin-7-ylmethyl)urea]

Second part, the compound before the results:

Compound	IC50
CC(C)n1ccc(CC(=O)N2CCC(c3ccc(C(=O)NCc4ccn5ccnc5c4)cc3)CC2)n1 [Example 1097, N-(imidazo[1,2-a]pyridin-7-ylmethyl)-4-(1-{[1-(propan-2-yl)-1H-pyrazol-3-yl]acetyl}piperidin-4-yl)benzamide]	64.7 nM
Cc1cccn2cc(C(=O)N3CCC(c4ccc(C(=O)NCc5ccn6ccnc6c5)cc4)CC3)nc12 [Example 992, N-(imidazo[1,2-a]pyridin-7-ylmethyl)-4-{1-[(8-methylimidazo[1,2-a]pyridin-2-yl)carbonyl]piperidin-4-yl}benzamide]	584 nM
O=C(NCc1ccn2ccnc2c1)c1ccc(NC(=O)c2ccc(F)c(F)c2)cc1 [Example 872, 3,4-difluoro-N-{4-[(imidazo[1,2-a]pyridin-7-ylmethyl)carbamoyl]phenyl}benzamide]	> 10000 nM
CC[C@H](C)C(=O)N1CCC(c2ccc(NC(=O)NCc3ccn4ccnc4c3)c(F)c2)CC1 [Example 1073, 1-(2-fluoro-4-{1-[(2S)-2-methylbutanoyl]piperidin-4-yl}phenyl)-3-(imidazo[1,2-a]pyridin-7-ylmethyl)urea]	3.88 nM
CC(C)(C)OC(=O)N1CCC(c2ccc(NC(=O)NCc3ccn4ccnc4c3)c(F)c2)CC1 [Example 912, tert-butyl 4-(3-fluoro-4-{[(imidazo[1,2-a]pyridin-7-ylmethyl)carbamoyl]amino}phenyl)piperidine-1-carboxylate]	8.72 nM
CC(C)CC(=O)N1CCC(c2ccc(C(=O)NCc3cn4ccnc4cn3)s2)CC1 [Example 838, N-(imidazo[1,2-a]pyrazin-6-ylmethyl)-5-[1-(3-methylbutanoyl)piperidin-4-yl]thiophene-2-carboxamide]	2.7 nM
N#Cc1ccc(CC(=O)N2CCC(c3ccc(C(=O)NCc4ccn5ccnc5c4)cc3)CC2)cc1 [Example 998, 4-{1-[(4-cyanophenyl)acetyl]piperidin-4-yl}-N-(imidazo[1,2-a]pyridin-7-ylmethyl)benzamide]	123 nM
CC(C)C(=O)N1CCC(c2ccc(C(=O)NCc3cn4ccnc4cn3)s2)CC1 [Example 837, N-(imidazo[1,2-a]pyrazin-6-ylmethyl)-5-[1-(2-methylpropanoyl)piperidin-4-yl]thiophene-2-carboxamide]	2.77 nM
O=C(NCc1ccn2ccnc2c1)c1ccc(C2CCN(C(=O)C3COc4ccccc4O3)CC2)cc1 (centres unmarked) [Example 976, 4-[1-(2,3-dihydro-1,4-benzodioxin-2-ylcarbonyl)piperidin-4-yl]-N-(imidazo[1,2-a]pyridin-7-ylmethyl)benzamide]	34.9 nM
O=C(NCc1cn2ccnc2cn1)c1ccc(C2CCN(C(=O)c3ccc(F)cc3F)CC2)s1 [Example 829, 5-[1-(2,4-difluorobenzoyl)piperidin-4-yl]-N-(imidazo[1,2-a]pyrazin-6-ylmethyl)thiophene-2-carboxamide]	1.77 nM
CC(C)CC(=O)N1CCC(c2ccc(C(=O)NCc3ccc4ncnn4c3)s2)CC1 [Example 843, 5-[1-(3-methylbutanoyl)piperidin-4-yl]-N-([1,2,4]triazolo[1,5-a]pyridin-6-ylmethyl)thiophene-2-carboxamide]	17.2 nM
CN1CCC(C(=O)N2CCC(c3ccc(C(=O)NCc4ccc5ncnn5c4)s3)CC2)CC1 [Example 851, 5-{1-[(1-methylpiperidin-4-yl)carbonyl]piperidin-4-yl}-N-([1,2,4]triazolo[1,5-a]pyridin-6-ylmethyl)thiophene-2-carboxamide]	133 nM
O=C(NCc1ccn2ccnc2c1)c1ccc(NC(=O)c2ccccc2F)cc1 [Example 874, 2-fluoro-N-{4-[(imidazo[1,2-a]pyridin-7-ylmethyl)carbamoyl]phenyl}benzamide]	6650 nM
O=C(NCc1ccn2ccnc2c1)c1ccc(C2CCN(C(=O)c3cc(C4CC4)no3)CC2)cc1 [Example 1062, 4-{1-[(3-cyclopropyl-1,2-oxazol-5-yl)carbonyl]piperidin-4-yl}-N-(imidazo[1,2-a]pyridin-7-ylmethyl)benzamide]	17 nM
COc1ncccc1/C=C/C(=O)N1CCC(c2ccc(C(=O)NCc3ccn4ccnc4c3)cc2)CC1 [Example 990, N-(imidazo[1,2-a]pyridin-7-ylmethyl)-4-{1-[(2E)-3-(2-methoxypyridin-3-yl)prop-2-enoyl]piperidin-4-yl}benzamide]	17.9 nM
O=C(NCc1ccn2ccnc2c1)c1ccc(C2CCN(C(=O)c3scnc3Cl)CC2)cc1 [Example 1102, 4-{1-[(4-chloro-1,3-thiazol-5-yl)carbonyl]piperidin-4-yl}-N-(imidazo[1,2-a]pyridin-7-ylmethyl)benzamide]	1.77 nM
COc1ccsc1C(=O)N1CCC(c2ccc(C(=O)NCc3ccn4ccnc4c3)cc2)CC1 [Example 1063, N-(imidazo[1,2-a]pyridin-7-ylmethyl)-4-{1-[(3-methoxythiophen-2-yl)carbonyl]piperidin-4-yl}benzamide]	1.89 nM
O=C(NCc1ccc2ncnn2c1)c1ccc(C2CCN(C(=O)c3cccc(F)c3)CC2)s1 [Example 832, 5-[1-(3-fluorobenzoyl)piperidin-4-yl]-N-([1,2,4]triazolo[1,5-a]pyridin-6-ylmethyl)thiophene-2-carboxamide]	10.1 nM
O=C(NCc1ccc2ncnn2c1)c1ccc(C2CCN(C(=O)CC(F)(F)F)CC2)s1 [Example 846, N-([1,2,4]triazolo[1,5-a]pyridin-6-ylmethyl)-5-[1-(3,3,3-trifluoropropanoyl)piperidin-4-yl]thiophene-2-carboxamide]	74.4 nM
O=C(NCc1ccn2ccnc2c1)c1ccc(C(=O)NCc2cc(F)ccc2F)cc1 [Example 909, N-(2,5-difluorobenzyl)-N′-(imidazo[1,2-a]pyridin-7-ylmethyl)benzene-1,4-dicarboxamide]	7210 nM
O=C(NCc1cn2ccnc2cn1)c1ccc(C2CCN(C(=O)CC(F)(F)F)CC2)cc1F [Example 1161, 2-fluoro-N-(imidazo[1,2-a]pyrazin-6-ylmethyl)-4-[1-(3,3,3-trifluoropropanoyl)piperidin-4-yl]benzamide]	61 nM
CC(C)S(=O)(=O)N1CCC(c2ccc(C(=O)NCc3ccc4ncnn4c3)s2)CC1 [Example 859, 5-[1-(propan-2-ylsulfonyl)piperidin-4-yl]-N-([1,2,4]triazolo[1,5-a]pyridin-6-ylmethyl)thiophene-2-carboxamide]	10.4 nM
O=C(NCc1ccn2ccnc2c1)c1ccc(NC(=O)c2ccccc2)cc1 [Example 869, 4-(benzoylamino)-N-(imidazo[1,2-a]pyridin-7-ylmethyl)benzamide]	6870 nM
